Columns and labels:
[1] = biological target: T1, Peroxisome proliferator-activated receptor gamma (Homo sapiens, UniProt P37231); type: cell-based, CV-1
T1 sequence (P37231 whole entry): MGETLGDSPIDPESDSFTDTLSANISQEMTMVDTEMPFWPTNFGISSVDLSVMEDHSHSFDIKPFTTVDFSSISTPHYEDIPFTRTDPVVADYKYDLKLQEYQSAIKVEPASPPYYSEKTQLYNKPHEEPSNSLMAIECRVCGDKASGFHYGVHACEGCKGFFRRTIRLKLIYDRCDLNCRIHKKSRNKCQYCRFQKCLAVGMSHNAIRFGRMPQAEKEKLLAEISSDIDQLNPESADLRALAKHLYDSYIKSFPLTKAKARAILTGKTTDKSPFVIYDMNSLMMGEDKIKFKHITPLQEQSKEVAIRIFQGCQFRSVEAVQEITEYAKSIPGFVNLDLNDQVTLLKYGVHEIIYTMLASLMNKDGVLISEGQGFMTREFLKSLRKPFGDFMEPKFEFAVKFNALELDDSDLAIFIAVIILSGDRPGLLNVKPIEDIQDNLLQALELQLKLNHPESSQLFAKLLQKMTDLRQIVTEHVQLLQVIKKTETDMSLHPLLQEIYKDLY
Description: Transactivation of GAL4-fused Homo sapiens (human) PPARgamma DNA binding domain expressed in African green monkey CV1 cells by luciferase reporter gene assay

[2] = biological target: T2, Peroxisome proliferator-activated receptor alpha (Homo sapiens, UniProt Q07869); assay: Transactivation of GAL4-fused Homo sapiens (human) PPARalpha […] expressed in African green monkey CV1 cells by luciferase reporter gene assay; type: cell-based, CV-1
T2 sequence (Q07869 whole entry): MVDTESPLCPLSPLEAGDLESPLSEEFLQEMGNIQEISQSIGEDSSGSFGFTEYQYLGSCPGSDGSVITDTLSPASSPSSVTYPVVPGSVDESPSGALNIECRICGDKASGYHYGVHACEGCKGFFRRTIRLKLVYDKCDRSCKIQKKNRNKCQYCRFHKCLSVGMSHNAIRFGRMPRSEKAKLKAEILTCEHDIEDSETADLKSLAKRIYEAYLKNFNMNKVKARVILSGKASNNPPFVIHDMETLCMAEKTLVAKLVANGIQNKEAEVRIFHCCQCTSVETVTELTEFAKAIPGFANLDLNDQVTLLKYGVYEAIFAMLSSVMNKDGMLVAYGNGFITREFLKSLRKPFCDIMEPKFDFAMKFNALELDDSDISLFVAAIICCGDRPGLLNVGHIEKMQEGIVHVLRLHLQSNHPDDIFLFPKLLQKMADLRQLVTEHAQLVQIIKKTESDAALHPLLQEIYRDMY

Row | Structure (SMILES) | EC50 [1] | EC50 ([2]; read-out: EC50) | EC50 ([2]; read-out: pEC50 (converted))
1 | COC(=O)c1ccccc1[C@@](O)(Cc1ccc(OCCc2nc(-c3ccccc3)oc2C)cc1)C(=O)O | 0.71 nM | 3500 nM | 
2 | Cc1oc(-c2ccccc2)nc1CCOc1ccc(C[C@@](O)(C(=O)O)c2ccccc2C(=O)c2ccccc2)cc1 | 0.34 nM | 457 nM | 
3 | CCO[C@@H](Cc1ccc(OC/C=C(/c2ccccc2)c2ccc(F)cc2)cc1)C(=O)O |  |  | 3160 nM
4 | Cc1oc(-c2ccccc2)nc1CCOc1ccc(C[C@@]2(C(=O)O)CCOCCO2)cc1 | 24 nM | 6900 nM | 
5 | Cc1oc(-c2ccccc2)nc1CCOc1ccc(C[C@]2(C(=O)O)C=CC=CO2)cc1 | 20 nM |  | 
6 | Cc1sc(N2CCN(C)CC2)nc1CCOc1ccc(C[C@@](O)(C(=O)O)c2ccccc2C(=O)c2ccccc2)cc1 | 1.29 nM | 6460 nM | 
7 | CCO[C@@H](Cc1ccc(OC/C=C(/c2ccccc2)c2ccc(-c3ccccc3)cc2)cc1)C(=O)O |  |  | 692 nM
8 | Cc1sc(-c2ccccc2)nc1CCOc1ccc(C[C@@](O)(C(=O)O)c2ccccc2C(=O)c2ccccc2)cc1 | 0.1 nM | 1050 nM | 

From ChEMBL document CHEMBL3046028, “3D-QSAR study of tyrosine and propanoic acid derivatives as PPAR/ dual agonists using CoMSIA” (Med Chem Res, 2013)
